This note sets out measurements from patent US20110105436A1, “HETEROARYL COMPOUNDS, COMPOSITIONS, AND METHODS OF USE IN CANCER TREATMENT” (AUCKLAND UNISERVICES LIMITED, priority 2008, published 2011).

In general, IC50 refers to the midpoint of a concentration-inhibition curve. The low end stands for greater potency, the high end for weaker potency. As a reminder, the melting point is the temperature, or range, at which the solid turns liquid.

For one data set, the system named is RCC4 cells. Put plainly: XTT assay in VHL-deficient RCC4 cells. It is filed as cell-based. The following applies: Homo sapiens, 96 h, XTT assay, VHL-deficient RCC4 cells, four days. Here is the method:
(§1) Cell Viability and XTT assays. For cell viability, 100,000 cells were plated in a 12-well plate. The following day, 1.25 μM STF-62247 was added in the presence or absence of 1 mM 3-MA for 24 hours at 37° C. Cells were trypsinized and counted by trypan blue exclusion. For XTT assays, 5000 RCC4 with and without VHL cells or 2,500 SN12C with and without VHL shRNA cells were plated in 96-well plates. The following day, vehicle (DMSO), STF-62247 or each of 19 analogs were added to media by serial dilution. Four days later, the media was aspirated and XTT solution containing 0.3 mg/ml of XTT (Sigma Chemical Co) in Phenol Red-free media, 20% FCS and 2.65 mg/ml N-methyl dibenzopyrazine methyl sulfate (PMS) was added to the cells and incubated at 37° C. for 1-2 hours. Metabolism of XTT was quantified by measuring the absorbance at 450 nm on a plate reader.
(Tetrazolium assays rely on reduction of a dye to a coloured formazan, in cell work by metabolically active cells.)

The subject of another data set is RCC4/VHL cells. Nature of the data set: XTT assay, RCC4/VHL versus RCC4 cells (selectivity ratio). It is filed as cell-based. The following applies: Table 1; selectivity ratio, IC50 in RCC4/VHL cells/IC50 in RCC4 cells. Here is the method: as §1
A. RCC4 and RCC4/VHL were treated with 1.25 μM of each 19 analogs for 20 hours and the presence of vacuoles was examined under light microscopy. B. Western blot for LC3 after treatment with each compound. Tubulin was used as loading control. Ratio is the relative from the IC50 in RCC4/VHL cells/IC50 in RCC4 cells. C. Acidic vesicle organelles (AVO) measured by FACS analysis in cells treated with 1.25 μM of STF-62247 or with compounds 21, 15, 25, 47, and 53 and stained with acridine orange.

The structures appear in SMILES notation.

The compound `Fc1cccc(Nc2nc(-c3ccncc3)cs2)c1` [Compound 121, N-(3-Fluorophenyl)-4-(4-pyridinyl)-1,3-thiazol-2-amine] had a melting point of 229 to 230 °C. Further, in the data set with RCC4 cells (Table 1), the half-maximal inhibitory concentration (IC50) was over 40 µM.

`CCOC(=O)c1sc(Nc2ccc3c(c2)CCC3)nc1-c1ccncc1` [Compound 89, Ethyl 2-(2,3-Dihydro-1H-inden-5-ylamino)-4-(4-pyridinyl)-1,3-thiazole-5-carboxylate]: the melting point lay within 203 to 205 °C. Also, the IC50 in the data set with RCC4 cells (Table 1) is over 40 µM.

`O=[N+]([O-])c1ccc(Nc2nc(-c3ccncc3)cs2)cc1` [Compound 35, N-(4-Nitrophenyl)-4-(4-pyridinyl)-1,3-thiazol-2-amine]: the melting point was over 290 °C. In the data set on RCC4 cells (Table 1), the half-maximal inhibitory concentration (IC50) is over 40 µM.

On to `FC(F)(F)c1cccc(Nc2nc(-c3ccncc3)cs2)c1` [Compound 19, 4-(4-Pyridinyl)-N-[3-(trifluoromethyl)phenyl]-1,3-thiazol-2-amine], for which the melting point fell in the range of 239 to 241 °C. The IC50 with RCC4 cells (Table 1) is over 40 µM.

`O=C(Nc1nc(-c2ccncc2)cs1)c1ccccc1` [Compound 99, N-[4-(4-Pyridinyl)-1,3-thiazol-2-yl]benzamide]: the melting point was 241 to 243 °C. For the same compound, the half-inhibitory concentration (IC50) in the data set on RCC4 cells (Table 1) was over 40 µM.

`Cc1cccc(N(CCO)c2nc(-c3ccncc3)cs2)c1` [Compound 97, 2-{3-Methyl[4-(4-pyridinyl)-1,3-thiazol-2-yl]anilino}ethanol] had a melting point of 149 to 151 °C. Further, the IC50 with RCC4 cells (Table 1) was over 40 µM.

In turn, `Cc1cccc(Nc2nc(-c3cc[n+]([O-])cc3)cs2)c1` [Compound 188, N-(3-Methylphenyl)-4-(1-oxido-4-pyridinyl)-1,3-thiazol-2-amine] gave a melting point of 162 to 164 °C. In the data set on RCC4 cells (Table 2), this compound showed an IC50 of over 40 µM.

Regarding `Cc1cccc(Nc2nc(-c3ccncc3)c(C(=O)NCCN(C)C)s2)c1` [Compound 93, N-[2-(Dimethylamino)ethyl]-2-[(3-methylphenyl)amino]-4-(4-pyridinyl)-1,3-thiazole-5-carboxamide], the melting point lay in the range of 189 to 191 °C. The IC50 in the data set on RCC4 cells (Table 1) was over 40 µM.

`Cc1cccc(Nc2nc(-c3ccncc3)c(C=O)s2)c1` [Compound 77, 2-[(3-Methylphenyl)amino]-4-(4-pyridinyl)-1,3-thiazole-5-carbaldehyde] returned a melting point of 220 to 223 °C. For the same compound, in the data set on RCC4 cells (Table 1), the midpoint of inhibition, the IC50, lay at 15 µM.

Compound `Cc1ccccc1Nc1nc(-c2ccncc2)cs1` [Compound 111, N-(2-Methylphenyl)-4-(4-pyridinyl)-1,3-thiazol-2-amine] returned a melting point of 158 to 160 °C. In the data set with RCC4 cells (Table 1), this compound gave an IC50 of over 40 µM.

Compound `CCOC(=O)c1sc(Nc2cccc(C)c2)nc1-c1ccncc1` [Compound 88, Ethyl 2-[(3-Methylphenyl)amino]-4-(4-pyridinyl)-1,3-thiazole-5-carboxylate] displayed a melting point of 233 to 235 °C. The compound also displayed a 50% inhibitory concentration (IC50) in the data set on RCC4 cells (Table 1) of over 40 µM.

`Cc1cccc(C(=O)Nc2nc(-c3ccncc3)cs2)c1` [Compound 100, 3-Methyl-N-[4-(4-pyridinyl)-1,3-thiazol-2-yl]benzamide] returned a melting point of 201 to 202 °C. The IC50 in the data set with RCC4 cells (Table 1) is over 40 µM.

In the case of `O=[N+]([O-])c1ccccc1Nc1nc(-c2ccncc2)cs1` [Compound 119, N-[2-Nitrophenyl]-4-(4-pyridinyl)-1,3-thiazol-2-amine], the melting point was in the range of 127 to 130 °C. In the data set with RCC4 cells (Table 1), the IC50 is over 40 µM.

Compound `Cc1ccc(C(=O)Nc2nc(-c3ccncc3)cs2)cc1` [Compound 101, 4-Methyl-N-[4-(4-pyridinyl)-1,3-thiazol-2-yl]benzamide] had a melting point of 238 to 241 °C. In addition, the half-maximal inhibitory concentration (IC50) in the data set on RCC4 cells (Table 1) is over 40 µM.

For the compound `COc1ccc(Nc2nc(-c3ccncc3)cs2)cc1O` [Compound 51, 2-Methoxy-5-{[4-(4-pyridinyl)-1,3-thiazol-2-yl]amino}phenol], the melting point lay within 230 to 232 °C.

The compound `Cc1cccc(Nc2nc(-c3ccncc3)co2)c1` [Compound 105, N-(3-Methylphenyl)-4-(4-pyridinyl)-1,3-oxazol-2-amine] returned a melting point of 201 to 204 °C. Further, in the data set with RCC4 cells (Table 1), the 50% inhibitory concentration (IC50) is over 40 µM.

With `N#Cc1ccc(Nc2nc(-c3ccncc3)cs2)cc1` [Compound 135, 4-{[4-(4-Pyridinyl)-1,3-thiazol-2-yl]amino}benzonitrile], the melting point was over 300 °C. Also, the IC50 with RCC4 cells (Table 1) is over 40 µM.

`Cc1cccc(Nc2nc(-c3ccncc3N)cs2)c1` [Compound 182] displayed a melting point of 159 to 161 °C. This compound came in with an IC50 in the data set with RCC4 cells (Table 2) of over 40 µM.

As for `Cc1cccc(Nc2nc(-c3ccnc(N4CCN(C)CC4)c3)cs2)c1` [Compound 198, N-(3-Methylphenyl)-4-[2-(4-methyl-1-piperazinyl)-4-pyridinyl]-1,3-thiazol-2-amine], the melting point is 141 to 143 °C.

On to `Cc1cccc(Nc2nc(-c3ccnc(N(C)C)c3)cs2)c1` [Compound 199, N,N-Dimethyl-4-{2-[(3-methylphenyl)amino]-1,3-thiazol-4-yl}-2-pyridinamine], for which the melting point lay in the range of 148 to 150 °C.

`Cc1cccc(Nc2nc(-c3ccncc3)c[nH]2)c1` [Compound 196, N-(3-Methylphenyl)-4-(4-pyridinyl)-1H-imidazol-2-amine] showed a melting point of 170 to 171 °C.

`N#Cc1cccc(Nc2nc(-c3ccncc3)cs2)c1` [Compound 127, 3-{[4-(4-Pyridinyl)-1,3-thiazol-2-yl]amino}benzonitrile]: the melting point fell in the range of 252 to 253 °C. Also, the IC50 in the data set with RCC4 cells (Table 1) is over 40 µM.

Regarding `COc1ccc(C(=O)Nc2nc(-c3ccncc3)cs2)cc1` [Compound 102, 4-Methoxy-N-[4-(4-pyridinyl)-1,3-thiazol-2-yl]benzamide], the melting point lay within 271 to 274 °C. This compound had an IC50 in the data set with RCC4 cells (Table 1) of over 40 µM.

On to `Cc1cccc(Nc2nc(-c3ccncc3)c(C(=O)NCCCN3CCOCC3)s2)c1` [Compound 94, 2-[(3-Methylphenyl)amino]-N-[3-(4-morpholinyl)propyl]-4-(4-pyridinyl)-1,3-thiazole-5-carboxamide], for which the melting point was in the range of 190 to 192 °C. Further, the IC50 with RCC4 cells (Table 1) was over 40 µM.

`COC(=O)CCc1sc(Nc2cccc(C)c2)nc1-c1ccncc1` [Compound 79, Methyl 3-[2-[(3-Methylphenyl)amino]-4-(4-pyridinyl)-1,3-thiazol-5-yl]propanoate] displayed a melting point of 121 to 123 °C. This compound also yielded an IC50 with RCC4 cells (Table 1) of over 40 µM.

For the compound `O=[N+]([O-])c1cccc(Nc2nc(-c3ccncc3)cs2)c1` [Compound 129, N-(3-Nitrophenyl)-4-(4-pyridinyl)-1,3-thiazol-2-amine], the melting point lay in the range of 244 to 247 °C. Besides, the IC50 in the data set with RCC4 cells (Table 1) is over 40 µM.

Turning to `FC(F)(F)c1ccccc1Nc1nc(-c2ccncc2)cs1` [Compound 117, 4-(4-Pyridinyl)-N-[2-(trifluoromethyl)phenyl]-1,3-thiazol-2-amine], the melting point lay in the range of 170 to 172 °C. Also, the IC50 with RCC4 cells (Table 1) was over 40 µM.

As for `COc1cc(Nc2nc(-c3ccncc3)cs2)cc(OC)c1` [Compound 57, N-(3,5-Dimethoxyphenyl)-4-(4-pyridinyl)-1,3-thiazol-2-amine], the melting point was in the range of 229 to 231 °C. The compound further yielded an IC50 in the data set on RCC4 cells (Table 1) of over 40 µM.

Compound `Cc1cccc(C)c1Nc1nc(-c2ccncc2)cs1` [Compound 137, N-(2,6-Dimethylphenyl)-4-(4-pyridinyl)-1,3-thiazol-2-amine] showed a melting point of 208 to 210 °C. This compound yielded an IC50 with RCC4 cells (Table 1) of over 40 µM.

In turn, `CC(C)(C)c1cccc(Nc2nc(-c3ccncc3)cs2)c1` [Compound 11, N-(3-tert-Butylphenyl)-4-(4-pyridinyl)-1,3-thiazol-2-amine] showed a melting point of 208 to 210 °C. In the data set on RCC4 cells (Table 1), this compound gave an IC50 of over 40 µM.

In turn, `Cc1cccc(CNc2nc(-c3ccncc3)cs2)c1` [Compound 103, N-(3-Methylbenzyl)-4-(4-pyridinyl)-1,3-thiazol-2-amine] came in with a melting point of 192 to 194 °C. In the data set on RCC4 cells (Table 1), the IC50 was over 40 µM.

As for `c1cc(-c2csc(Nc3ccc4c(c3)OCO4)n2)ccn1` [Compound 59, N-(1,3-Benzodioxol-5-yl)-4-(4-pyridinyl)-1,3-thiazol-2-amine], the melting point lay within 201 to 203 °C. Moreover, the IC50 in the data set with RCC4 cells (Table 1) is over 40 µM.

For the compound `Cc1cccc(Nc2nc(-c3ccnc(N4CCOCC4)c3)cs2)c1` [Compound 197, N-(3-Methylphenyl)-4-[2-(4-morpholinyl)-4-pyridinyl]-1,3-thiazol-2-amine], the melting point lay within 190 to 191 °C.

On to `CCc1cccc(Nc2nc(-c3ccncc3)cs2)c1` [Compound 7, N-(3-Ethylphenyl)-4-(4-pyridinyl)-1,3-thiazol-2-amine], for which the midpoint of inhibition with RCC4 cells (Table 1), the IC50, lay at 2.5 µM. In the data set on RCC4/VHL cells, the Ratio was 9.6.

Turning to `O=P(O)(O)Oc1ccc(Nc2nc(-c3ccncc3)cs2)cc1` [Compound 41, 4-{[4-(4-Pyridinyl)-1,3-thiazol-2-yl]amino}phenyl Dihydrogen Phosphate], the IC50 in the data set with RCC4 cells (Table 1) was 3 µM. The Ratio in the data set on RCC4/VHL cells worked out at 6.3.
